Measured values taken from patent US7468364B2, “Carbapenem compounds” (Dainippon Sumitomo Pharma Co., Ltd., priority 2003, dated 2008).

Assay: Oral absorption test in rats
Type: in vivo
Conditions: male SD rats, oral 10 mg value/kg (as active substance)
Procedure: A compound of Example 1 of the present invention and a pivaloyloxymethyl ester derivative of the compound 32, carbapenem in which para-hydroxyphenyl group is directly substituted, which is described in the Journal of Medicinal Chemistry, Vol. 30, p 871-880, 1987 (which is one of the prior arts which are most relevant to the present invention) were orally administered to mice or rats. The concentration of the active substance in serum was measured by bioassay, and absolute bioavailability was compared respectively.
The test sample was prepared in the same manner as in the oral absorption test in mice. […] To thus treated rats were orally administered the test sample (10 mg value/kg (calculated into active substance)). […] The concentration of the active substance in the serum was measured by bioassay in the same manner as in the oral absorption in mice. […]
In regard to the test sample, the value of the concentration of the active substance in serum was plotted to the hours after administration, and calculated the concentration of the active substance-area under hours curve (AUC) or calculated reducing area under hours curve (AUC) from the concentration of the active substance. On the other hand, AUC when the active substance was intravenously administered was calculated as mentioned above. […]
The absolute availability (BA) was calculated based on the above formula.

oral absorbability: did not show oral absorbability
SMILES: C[C@@H](O)[C@H]1C(=O)N2C(C(=O)OCOC(=O)C(C)(C)C)=C(c3ccc(O)cc3)C[C@H]12 [comparative compound]
